Data published in PMC3583241, “Hit identification of IKKβ natural product inhibitor” (BMC Pharmacology & Toxicology, 2013).

Target: T1, IKKβ (Homo sapiens, UniProt O14920)
T1 construct: gene IKBKB; human recombinant IKKβ
T1 sequence (O14920 1-756): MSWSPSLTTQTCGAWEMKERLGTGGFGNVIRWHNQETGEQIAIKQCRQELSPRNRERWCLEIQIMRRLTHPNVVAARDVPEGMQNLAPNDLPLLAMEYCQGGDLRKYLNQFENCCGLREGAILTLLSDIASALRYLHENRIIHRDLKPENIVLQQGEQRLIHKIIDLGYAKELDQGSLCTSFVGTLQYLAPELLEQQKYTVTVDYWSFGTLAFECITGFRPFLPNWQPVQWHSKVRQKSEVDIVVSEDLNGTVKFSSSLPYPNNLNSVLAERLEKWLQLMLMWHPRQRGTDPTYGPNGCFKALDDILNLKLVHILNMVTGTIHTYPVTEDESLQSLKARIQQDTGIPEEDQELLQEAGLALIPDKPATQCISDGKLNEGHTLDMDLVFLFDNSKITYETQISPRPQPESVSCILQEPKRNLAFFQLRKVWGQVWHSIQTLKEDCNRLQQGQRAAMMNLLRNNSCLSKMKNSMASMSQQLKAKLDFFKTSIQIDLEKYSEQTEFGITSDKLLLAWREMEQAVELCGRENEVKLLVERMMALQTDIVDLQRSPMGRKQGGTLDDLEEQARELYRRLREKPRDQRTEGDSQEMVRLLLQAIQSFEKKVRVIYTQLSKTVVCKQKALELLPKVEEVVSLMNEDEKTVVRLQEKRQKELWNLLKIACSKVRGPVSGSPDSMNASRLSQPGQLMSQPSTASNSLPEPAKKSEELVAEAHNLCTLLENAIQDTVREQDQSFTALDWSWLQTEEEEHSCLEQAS
Assay: ELISA-based K-LISA IKKβ kinase assay with GST-IκBα substrate
Format: biochemical

IC50: ~50 µM
SMILES: O=C(O)c1ccccc1C(=O)NCCC(c1ccccc1)c1ccco1 (stereo not shown) [compound 1, benzoic acid derivative (1)]
